From US8003096B2, “Means and methods for the recruitment and identification of stem cells” (Vlaams Interuniversitair Instituut voor Biotechnologie VZW, priority 2003, dated 2011)

Tests used:
[1] = type: in vivo, mouse
Method: To study the role of the plasminogen proteinase system with its plasminogen activators tPA and uPA, and active plasmin in stem/progenitor cell mobilization, mice lacking plasminogen (Plg^−/−), tPA (tPA^−/−), uPA (uPA^−/−) and both activators (tPA^−/−uPA^−/−) were used.^(17, 18) Age- and sex-matched mice were kept in IVC cages. Mobilization was induced either via a single sublethal injection i.v. of the myeloablative agent 5-fluorouracil (5-FU, 200-250 mg/kg), or via administration s.c. of recombinant human G-CSF (Filgrastim, Amgen, 200 μg/kg/d) for five consecutive days.^(12) Peripheral blood (PB) samples were obtained by retro-orbital bleeding under light anesthesia. Full blood counts were determined on the Abbott Cell Dyn 1300 hemocytometer. The number of mobilized hematopoietic progenitor cells (HPCs) in the circulation was determined via methylcellulose-based CFU-C assays (MethoCult, Stem Cell Technologies), per 10^5 peripheral blood mononuclear cells (PB MNCs).^(12) The number of mobilized hematopoietic stem cells (HSCs) in the circulation was quantified via splenic colony-forming assays (CFU-S), and evaluated for long-term engraftment via transplantation into lethally irradiated syngeneic wild-type recipients (9.5 Gy total body irradiation). […]
Wild-type mice and mice lacking Plg, both tPA and uPA, tPA, uPA, uPAR, PAI-1, α2AP, MMP-2 (kind gift from S. Itohara), MMP-3 (kind gift from J. Mudgett), MMP-9, MMP-12 (kind gift from S. Shapiro), and TIMP-1 (obtained by courtesy of P. Soloway) were used, and housed in barrier cages (individually ventilated) (Heymans et al. (1999), Nat. Med. 5:1135-42). […] Peripheral blood was repetitively sampled by retro-orbital puncture under light anesthesia, and full blood counts (EDTA buffered) were determined on a hemocytometer (Abbott Cell Dyn 1300). Peripheral blood smears were stained using Giemsa-May-Grunwald and at least 200 cells were analyzed. […]

[2] = tested on: BM cells; assay: FACS analysis of BM cells after 5-FU; type: in vivo, mouse; details: for Sca-1+ progenitors in S-phase of the cell cycle: 5-FU treatment; for CD3ε+ lymphoid cell counts / Gr1+CD11b+ myeloid cell counts: day 7 after 5-FU; for BM HSCs (Sca-1+cKit+ cells) / HPCs (Sca-1+ cells): seven days after 5-FU
Text: Murine BM cells were filtered through a 40 μm nylon mesh (Falcon) and stained with labeled anti-mouse antibodies against CD11b, Gr-1, CD3ε, CD19, Sca-1, α5β1, (BD Biosciences), cKit (eBioscience). Anti-mouse α4β1, antibodies were generated from hybridoma (PS/2; ATCC), and detected using a secondary labeled anti-rat antibody (Caltag). Mouse annexin II was detected using a goat anti-annexin II antibody (Santa Cruz), and a secondary labeled rabbit anti-goat antibody (Caltag). Mouse uPAR was detected using a rabbit anti-mouse uPAR antibody (Sier et al. (2004), Thromb. Haemost. 91:403-11), and a secondary labeled goat anti-rabbit antibody (BD Biosciences). Control stainings included matched isotype antibodies and pre-immune antibodies. Non-specific binding was prevented by addition of mouse serum (DAKO), as alternative for Fc-receptor block. For cell cycle analysis, BM cells were stained with Sca-1-FITC and treated with PI/RNAse (BD Biosciences), as previously described (Heissig et al. (2002), Cell 109:625-37). From EDTA-anti-coagulated human blood, full blood counts were performed, MNCs were prepared using Lymphoprep (Axis-Shield), counted, and 1×10^6 PB MNCs were stained with anti-human CD34 (Tebu Bio).

O=c1[nH]cc(F)c(=O)[nH]1 [5-FU, 5-fluorouracil]
mice that died ([1]; Plg−/− or tPA−/−uPA−/− mice, sublethal dose): up to 75% | mice that did not survive ([1]; WT mice, sublethal dose): 10% | time to recovery from drop in WBC, RBC and platelet counts ([1]; mouse, in vivo): 2.5-3 weeks | Sca-1+ progenitors in S-phase of the cell cycle ([2]; Plg−/− mice): 1.2±0.6 ×10^4 per femur | CD3ε+ lymphoid cell counts ([2]; Plg−/− mice): 67±31 ×104 per femur | Gr1+CD11b+ myeloid cell counts ([2]; Plg−/− mice): 3±2 ×10^4 per femur | BM HSCs (Sca-1+cKit+ cells) ([2]; Plg−/− mice): 5±1 ×10^4 per femur | HPCs (Sca-1+ cells) ([2]; Plg−/− mice): 48±22 ×10^4 per femur | Sca-1+ progenitors in S-phase of the cell cycle ([2]; WT mice): 8.4±0.8 ×10^4 per femur | CD3ε+ lymphoid cell counts ([2]; WT mice): 438±122 ×104 per femur | Gr1+CD11b+ myeloid cell counts ([2]; WT mice): 29±13 ×10^4 per femur | BM HSCs (Sca-1+cKit+ cells) ([2]; WT mice): 42±9 ×10^4 per femur | HPCs (Sca-1+ cells) ([2]; WT mice): 206±20 ×10^4 per femur
